Experimental data: the supplement of paper PMC10627819

What was measured:
[1] = test system: B. subtilis 168; assay: fitness (endpoint OD595 vs no drug) (fraction); higher = more growth
Procedure, shortened: (§1)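 Each well of a 384-well plate received 30 µl of culture at OD595 0.01, or 55 µl for S. pneumoniae. TSB, LB Lennox or CY served as media at 37 °C. OD595 was taken every 30 min for 14 h and corrected by subtracting the first reading. Fitness is the optical density at stationary-phase entry divided by the robust mean of no-drug controls, capped at 1.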

[2] = test system: S. aureus DSM 20231; assay: as above
Procedure, shortened: as §1

[3] = test system: S. aureus Newman; assay: as above
Procedure, shortened: as §1

[4] = test system: S. pneumoniae D39V; assay: as above
Procedure, shortened: as §1

[5] = test system: B. subtilis 168; assay: Bliss interaction score (quartile over a dose matrix) (fitness difference); higher = more antagonism (negative = synergy)
Procedure, shortened: (§2)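 Quartiles summarise the Bliss score over technical, biological and donor/recipient replicates, where the score is observed minus expected fitness under a product model. Expected fitness uses single-drug values inferred from combination data. Fitness is OD595 at entry into stationary phase over the plate's robust no-drug mean, capped at 1.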

[6] = test system: S. aureus DSM 20231; assay: as above
Procedure, shortened: as §2

[7] = test system: S. aureus Newman; assay: as above
Procedure, shortened: as §2

[8] = test system: S. pneumoniae D39V; assay: as above
Procedure, shortened: as §2
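Throughout, for Bliss interaction score (quartile over a dose matrix): first quartile when negative (synergy) and third quartile when positive (antagonism).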

CO/N=C(\C(=O)N[C@@H]1C(=O)N2C(C(=O)O)=C(COC(C)=O)CS[C@H]12)c1csc(N)n1 [Cefotaxime] + CC1=C\[C@@H](O)CC(=O)Cc2nc(co2)C(=O)N2CCC=C2C(=O)O[C@H](C(C)C)[C@H](C)/C=C/C(=O)NC\C=C\1 [Virginiamycin M1]
one replicate
Details | fitness
[1], first compound 0.00775 µg/mL, partner 0.0625 µg/mL | 0.854
[1], first compound 0.00775 µg/mL, partner 0.125 µg/mL | 0.833
[1], first compound 0.00775 µg/mL, partner 0.25 µg/mL | 0.833
[1], first compound 0.0155 µg/mL, partner 0.0625 µg/mL | 0.695
[1], first compound 0.0155 µg/mL, partner 0.125 µg/mL | 0.683
[1], first compound 0.0155 µg/mL, partner 0.25 µg/mL | 0.673
[1], first compound 0.031 µg/mL, partner 0.0625 µg/mL | 0.554
[1], first compound 0.031 µg/mL, partner 0.125 µg/mL | 0.557
[1], first compound 0.031 µg/mL, partner 0.25 µg/mL | 0.583
[2], first compound 0.039 µg/mL, partner 0.0625 µg/mL | 0.775
[2], first compound 0.039 µg/mL, partner 0.125 µg/mL | 0.779
[2], first compound 0.039 µg/mL, partner 0.25 µg/mL | 0.762
[2], first compound 0.078 µg/mL, partner 0.5 µg/mL | 0.778
[2], first compound 0.078 µg/mL, partner 1 µg/mL | 0.799
[2], first compound 0.156 µg/mL, partner 0.5 µg/mL | 0.742
[2], first compound 0.156 µg/mL, partner 1 µg/mL | 0.699
[2], first compound 0.312 µg/mL, partner 0.5 µg/mL | 0.61
[2], first compound 0.312 µg/mL, partner 1 µg/mL | 0.706
[3], first compound 0.039 µg/mL, partner 0.5 µg/mL | 0.71
[3], first compound 0.039 µg/mL, partner 1 µg/mL | 0.72
[3], first compound 0.039 µg/mL, partner 2 µg/mL | 0.732
[3], first compound 0.078 µg/mL, partner 0.0625 µg/mL | 0.699
[3], first compound 0.078 µg/mL, partner 0.125 µg/mL | 0.716
[3], first compound 0.078 µg/mL, partner 0.25 µg/mL | 0.734
[3], first compound 0.078 µg/mL, partner 0.5 µg/mL | 0.672
[3], first compound 0.078 µg/mL, partner 1 µg/mL | 0.687
[3], first compound 0.078 µg/mL, partner 2 µg/mL | 0.57
[3], first compound 0.156 µg/mL, partner 0.0625 µg/mL | 0.494
[3], first compound 0.156 µg/mL, partner 0.125 µg/mL | 0.468
[3], first compound 0.156 µg/mL, partner 0.25 µg/mL | 0.509
[3], first compound 0.156 µg/mL, partner 0.5 µg/mL | 0.648
[3], first compound 0.156 µg/mL, partner 1 µg/mL | 0.613
[3], first compound 0.156 µg/mL, partner 2 µg/mL | 0.444
[3], first compound 0.312 µg/mL, partner 0.0625 µg/mL | 0.305
[3], first compound 0.312 µg/mL, partner 0.125 µg/mL | 0.326
[3], first compound 0.312 µg/mL, partner 0.25 µg/mL | 0.307
[3], first compound 0.312 µg/mL, partner 0.5 µg/mL | 0.57
[3], first compound 0.312 µg/mL, partner 1 µg/mL | 0.54
[3], first compound 0.312 µg/mL, partner 2 µg/mL | 0.344
[3], first compound 0.625 µg/mL, partner 0.0625 µg/mL | 0.0023
[3], first compound 0.625 µg/mL, partner 0.125 µg/mL | 0.0438
[3], first compound 0.625 µg/mL, partner 0.25 µg/mL | 0.039
[3], first compound 1.25 µg/mL, partner 0.0625 µg/mL | 0.0272
[3], first compound 1.25 µg/mL, partner 0.125 µg/mL | 0.0702
[3], first compound 1.25 µg/mL, partner 0.25 µg/mL | 0.0726
[3], first compound 2.5 µg/mL, partner 0.0625 µg/mL | 0.0428
[3], first compound 2.5 µg/mL, partner 0.125 µg/mL | 0.0329
[3], first compound 2.5 µg/mL, partner 0.25 µg/mL | 0.0641
[4], first compound 0.0018 µg/mL, partner 0.15 µg/mL | ≥ 1
[4], first compound 0.0018 µg/mL, partner 0.3 µg/mL | 0.976
[4], first compound 0.0035 µg/mL, partner 0.15 µg/mL | ≥ 1
[4], first compound 0.0035 µg/mL, partner 0.3 µg/mL | ≥ 1
[4], first compound 0.007 µg/mL, partner 0.15 µg/mL | ≥ 1
[4], first compound 0.007 µg/mL, partner 0.3 µg/mL | 0.952

fitness
Details | partner 0.0625 µg/mL | partner 0.125 µg/mL | partner 0.25 µg/mL | partner 0.5 µg/mL | partner 1 µg/mL | partner 2 µg/mL
[1], first compound 0.5 µg/mL | 0.23 | 0.246 | 0.239 | – | – | –
[1], first compound 1 µg/mL | 0.085 | 0.0947 | 0.119 | – | – | –
[1], first compound 2 µg/mL | 0.0507 | 0.082 | 0.0814 | – | – | –
[2], first compound 0.078 µg/mL | 0.678 | 0.784 | 0.776 | – | – | –
[2], first compound 0.156 µg/mL | 0.711 | 0.83 | 0.741 | – | – | –
[2], first compound 0.312 µg/mL | 0.683 | 0.694 | 0.676 | – | – | –
[4], first compound 0.0018 µg/mL | – | – | – | 0.991 | 1 | 0.947
[4], first compound 0.0035 µg/mL | – | – | – | 0.975 | 0.95 | 0.966
[4], first compound 0.007 µg/mL | – | – | – | 0.916 | 0.957 | 0.917

Details | Bliss interaction score
[5] | 0.0729
[6] | 0.0452
[7] | -0.0479
[8] | -0.0315

CO/N=C(\C(=O)N[C@@H]1C(=O)N2C(C(=O)O)=C(COC(C)=O)CS[C@H]12)c1csc(N)n1 [Cefotaxime] + Cc1ncc([N+](=O)[O-])n1CCO [Metronidazole]
fitness, one replicate
Details | partner 0.625 µg/mL | partner 0.781 µg/mL | partner 1.25 µg/mL | partner 1.562 µg/mL | partner 2.5 µg/mL | partner 3.124 µg/mL
[1], first compound 0.00775 µg/mL | 0.871 | – | 0.887 | – | 0.851 | –
[1], first compound 0.0155 µg/mL | 0.728 | – | 0.672 | – | 0.707 | –
[1], first compound 0.031 µg/mL | 0.553 | – | 0.576 | – | 0.594 | –
[3], first compound 0.039 µg/mL | 0.888 | – | 0.794 | – | 0.817 | –
[3], first compound 0.078 µg/mL | – | 0.714 | – | 0.756 | – | 0.788
[3], first compound 0.156 µg/mL | – | 0.492 | – | 0.486 | – | 0.529
[3], first compound 0.312 µg/mL | 0.248 | 0.305 | 0.311 | 0.397 | 0.329 | 0.361
[3], first compound 0.625 µg/mL | – | 0.0599 | – | 0.0931 | – | 0.0887
[3], first compound 1.25 µg/mL | – | 0.0419 | – | 0.0637 | – | 0.07
[3], first compound 2.5 µg/mL | – | 0.0362 | – | 0.0976 | – | 0.0571

fitness
Details | partner 0.625 µg/mL | partner 1.073 µg/mL | partner 1.25 µg/mL | partner 2.145 µg/mL | partner 2.5 µg/mL | partner 4.29 µg/mL | partner 5 µg/mL
[1], first compound 0.5 µg/mL | 0.299 | – | 0.289 | – | 0.278 | – | –
[1], first compound 1 µg/mL | 0.152 | – | 0.135 | – | 0.146 | – | –
[1], first compound 2 µg/mL | 0.0908 | – | 0.109 | – | 0.108 | – | –
[2], first compound 0.039 µg/mL | 0.825 | – | 0.888 | – | 0.963 | – | –
[2], first compound 0.078 µg/mL | 0.829 | – | 0.828 | – | 0.913 | – | –
[2], first compound 0.156 µg/mL | 0.689 | – | 0.745 | – | 0.813 | – | –
[2], first compound 0.312 µg/mL | 0.621 | – | 0.649 | – | 0.674 | – | –
[3], first compound 0.078 µg/mL | 0.767 | – | 0.779 | – | 0.792 | – | –
[3], first compound 0.156 µg/mL | 0.663 | – | 0.705 | – | 0.674 | – | –
[4], first compound 0.0018 µg/mL | – | 0.976 | 0.963 | 0.928 | 0.996 | 0.972 | 0.975
[4], first compound 0.0035 µg/mL | – | 0.987 | 0.979 | 0.92 | 0.975 | 0.939 | 0.973
[4], first compound 0.007 µg/mL | – | 0.95 | 0.961 | 0.89 | 0.99 | 0.933 | 0.953

Details | Bliss interaction score
[5] | 0.0904
[6] | -0.0403
[7] | 0.0437
[8] | 0.0575
